This passage reports IC50 results from US11236047B2 (ASTEX THERAPEUTICS LIMITED, priority 2017, dated 2022).

Where two headings read alike, the source gives them in different places.

This assay has as its system SJSA-1 cells. Kind of assay: Protocol B: SJSA-1 CellTiter-Glo luminescent cell viability assay.
The mark [1] stands for this setting: Homo sapiens, SJSA-1, read-out: SJSA1 IC50 (μM) (Protocol B), SJSA-1, Protocol B.
The mark [2] stands for this setting: Homo sapiens, SJSA-1, read-out: SJSA1 IC50 (μM), Protocol B, SJSA-1.
The mark [3] stands for this setting: read-out: SJSA1 IC50 (μM) (Protocol B), SJSA-1, Protocol B.

Experimental: Protocol B: SJSA-1 and SN40R2 Assays
The CellTiter-Glo® Luminescent Cell Viability Assay is a homogeneous method to determine the number of viable cells in culture based on quantitation of the ATP present, which signals the presence of metabolically active cells. […] 100 μl of CTG reagent (Promega #G7573) was added to all wells and luminescence was measured on the topcount. The EC50 values were determined from a sigmoidal 4 parameter curve fit using XLfit in conjunction with Activity Base (IDBS; Guildford, Surrey, UK).

On to `CC(O)(c1cc(F)c2c(c1)C(=O)N(Cc1ccc(C#N)cn1)[C@@]2(OCC1(C#N)CC1)c1ccc(Cl)cc1)C1CCOCC1` (stereo partly drawn) [Example 282, 6-{[(1R)-1-(4-chlorophenyl)-1-[(1-cyanocyclopropyl)methoxy]-7-fluoro-5-[1-hydroxy-1-(oxan-4-yl)ethyl]-3-oxo-2,3-dihydro-1H-isoindol-2-yl]methyl}pyridine-3-carbonitrile], for which the 50% inhibitory concentration (IC50) under setting [1] amounted to 0.061 µM.

Consider `CC(O)(c1cc(F)c2c(c1)C(=O)N(Cc1ncc(Cl)cn1)[C@@]2(OCC1(C(N)=O)CC1)c1ccc(Cl)cc1)C1CCOCC1` (stereo partly drawn) [Example 284, 1-({[(1R)-1-(4-chlorophenyl)-2-[(5-chloropyrimidin-2-yl)methyl]-7-fluoro-5-[1-hydroxy-1-(oxan-4-yl)ethyl]-3-oxo-2,3-dihydro-1H-isoindol-1-yl]oxy}methyl)cyclopropane-1-carboxamide], for which the IC50 under setting [1] stood at 0.017 µM.

Take `CCC(O)(c1cc(F)c2c(c1)C(=O)N(Cc1ccc(Cl)nc1)[C@@]2(OCCO)c1ccc(Cl)cc1)c1cn(C)cn1` (stereo partly drawn) [Example 367, (3R)-3-(4-chlorophenyl)-2-[(6-chloropyridin-3-yl)methyl]-4-fluoro-6-[1-hydroxy-1-(1-methyl-1H-imidazol-4-yl)propyl]-3-(2-hydroxyethoxy)-2,3-dihydro-1H-isoindol-1-one]: the IC50 under setting [2] amounted to 0.11 µM.

`CO[C@]1(c2ccc(Cl)cc2)c2c(F)cc(C(C)(O)C3CN(C(C)=O)C3)cc2C(=O)N1Cc1ccc(Cl)cn1` (stereo partly drawn) [Example 389, (3R)-6-[1-(1-acetylazetidin-3-yl)-1-hydroxyethyl]-3-(4-chlorophenyl)-2-[(5-chloropyridin-2-yl)methyl]-4-fluoro-3-methoxy-2,3-dihydro-1H-isoindol-1-one]: the IC50 under setting [3] turned out to be 4.2 µM.

Regarding `CO[C@]1(c2ccc(Cl)cc2)c2c(F)cc(C(C)(O)C3CN(C(C)=O)C3)cc2C(=O)N1Cc1ccc(Cl)cn1` (stereo partly drawn) [Example 390, (3R)-6-[1-(1-acetylazetidin-3-yl)-1-hydroxyethyl]-3-(4-chlorophenyl)-2-[(5-chloropyridin-2-yl)methyl]-4-fluoro-3-methoxy-2,3-dihydro-1H-isoindol-1-one], under setting [3], the half-inhibitory concentration (IC50) was 0.63 µM.

Take `CO[C@]1(c2ccc(Cl)cc2)c2c(F)cc(C(C)(O)C3CN(C(=O)CO)C3)cc2C(=O)N1Cc1ccc(Cl)cn1` (stereo partly drawn) [Example 391, (3R)-3-(4-chlorophenyl)-2-[(5-chloropyridin-2-yl)methyl]-4-fluoro-6-{1-hydroxy-1-[1-(2-hydroxyacetyl)azetidin-3-yl]ethyl}-3-methoxy-2,3-dihydro-1H-isoindol-1-one]: the IC50 under setting [1] is 0.66 µM.

As for `CO[C@]1(c2ccc(Cl)cc2)c2c(F)cc(C(C)(O)C3CN(C(=O)N(C)C)C3)cc2C(=O)N1Cc1ccc(C#N)cn1` (stereo partly drawn) [Example 393, 3-{1-[(1R)-1-(4-chlorophenyl)-2-[(5-cyanopyridin-2-yl)methyl]-7-fluoro-1-methoxy-3-oxo-2,3-dihydro-1H-isoindol-5-yl]-1-hydroxyethyl}-N,N-dimethylazetidine-1-carboxamide], the half-inhibitory concentration (IC50) under setting [2] turned out to be 0.79 µM.

As for `O=C1c2cc(C(O)C3CCS(=O)(=O)CC3)cc(F)c2[C@](OCC2(O)CC2)(c2ccc(Cl)cc2)N1Cc1ncc(Cl)cn1` (stereo partly drawn) [Example 400, 4-{[(1R)-1-(4-chlorophenyl)-2-[(5-chloropyrimidin-2-yl)methyl]-7-fluoro-1-[(1-hydroxycyclopropyl)methoxy]-3-oxo-2,3-dihydro-1H-isoindol-5-yl](hydroxy)methyl}-1λ6-thiane-1,1-dione], the IC50 under setting [2] was 1.1 µM.

As for `Cn1cc(C(C)(O)c2cc(F)c3c(c2)C(=O)N(Cc2ccc(Cl)c[n+]2[O-])[C@@]3(OCC2(O)CC2)c2ccc(Cl)cc2)cn1` (stereo partly drawn) [Example 409, (3R)-2-[(5-chloro-1-oxo-1λ^5-pyridin-2-yl)methyl]-3-(4-chlorophenyl)-4-fluoro-6-[1-hydroxy-1-(1-methyl-1H-pyrazol-4-yl)ethyl]-3-[(1-hydroxycyclopropyl)methoxy]-2,3-dihydro-1H-isoindol-1-one], the IC50 under setting [1] is 0.41 µM.
